Experimental findings from patent publication US7544773B2 (priority 2003, dated 2009) are described below.

The test deals with Dr hemagglutinin (Escherichia coli, UniProt P24093). Format: cell-based, E. coli.
Chain of Dr hemagglutinin (P24093 22-160): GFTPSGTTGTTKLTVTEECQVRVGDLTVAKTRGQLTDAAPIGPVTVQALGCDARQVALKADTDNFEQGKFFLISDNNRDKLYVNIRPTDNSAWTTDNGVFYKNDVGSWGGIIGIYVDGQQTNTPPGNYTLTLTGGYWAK

On to TTGTTKL, for which the “polymerisation of Dr hemagglutinin judged by hemaglutination assay” value is on record as “completely abolished”.
